Assay results reported in patent publication US20250136606A1, “MODULATORS OF TRPML, THEIR COMPOSITIONS AND METHODS OF USE” (Caraway Therapeutics, Inc., priority 2021, published 2025).

What was measured:
Type in all cases: cell-based
Conditions in all cases: fluorescent calcium assay
TRPML1 = TRPML1 (Homo sapiens, UniProt Q9GZU1); test: Fluorescent TRPML1 assay (Fluo4-AM calcium fluorescence in doxycycline-induced HEK-293 Trex cells)
Procedure, shortened: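 First, expression of surface-targeted mutant human TRPML1 is induced in HEK-293 Trex cells with 0.5 ug/mL doxycycline the day before. Next, cells take up 1 micromolar Fluo4-AM in Ringer's with 0.1% Pluronic. Finally, they are added to compounds (6 nanomolar–20 micromolar final) in 10 mM calcium Ringer's and fluorescence is read.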

TRPML3 = biological target: T1, TRPML3 (Homo sapiens, UniProt Q8TDD5); test: Fluorescent TRPML3 assay (performed as for TRPML1, substituting the TRPML3 subtype)
T1 construct: expressed in transfected cells
T1 sequence (Q8TDD5 1-553): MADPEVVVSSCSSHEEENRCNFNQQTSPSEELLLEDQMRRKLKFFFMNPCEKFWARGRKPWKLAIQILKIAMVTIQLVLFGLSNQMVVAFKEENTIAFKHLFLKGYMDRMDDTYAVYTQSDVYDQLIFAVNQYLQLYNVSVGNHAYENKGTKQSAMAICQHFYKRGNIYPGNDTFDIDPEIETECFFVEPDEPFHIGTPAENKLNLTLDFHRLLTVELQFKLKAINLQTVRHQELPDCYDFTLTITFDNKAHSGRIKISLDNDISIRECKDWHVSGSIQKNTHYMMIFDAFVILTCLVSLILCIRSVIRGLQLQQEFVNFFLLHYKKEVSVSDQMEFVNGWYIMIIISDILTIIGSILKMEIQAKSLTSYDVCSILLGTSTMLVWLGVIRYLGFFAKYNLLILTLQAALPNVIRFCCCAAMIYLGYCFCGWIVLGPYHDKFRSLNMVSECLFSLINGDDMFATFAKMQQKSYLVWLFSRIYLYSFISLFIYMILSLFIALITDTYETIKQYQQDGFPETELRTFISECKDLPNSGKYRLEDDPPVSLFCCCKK
Procedure, shortened: (§1)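 HEK-293 Trex cells with doxycycline-induced (0.5 ug/mL) surface-directed human TRPML subtype, loaded with 1 μM Fluo4-AM, resuspended in Ringer's with 10 mM calcium. Compounds at 20 μM to 6 nM final in half-log steps, triplicate; fluorescence ex 480/em 540; EC50 by non-linear regression versus plate controls.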

TRPML2 = biological target: T2, TRPML2 (Homo sapiens, UniProt Q8IZK6); test: Fluorescent TRPML2 assay (performed as for TRPML1, substituting the TRPML2 subtype)
T2 construct: expressed in transfected cells
T2 sequence (Q8IZK6 1-566): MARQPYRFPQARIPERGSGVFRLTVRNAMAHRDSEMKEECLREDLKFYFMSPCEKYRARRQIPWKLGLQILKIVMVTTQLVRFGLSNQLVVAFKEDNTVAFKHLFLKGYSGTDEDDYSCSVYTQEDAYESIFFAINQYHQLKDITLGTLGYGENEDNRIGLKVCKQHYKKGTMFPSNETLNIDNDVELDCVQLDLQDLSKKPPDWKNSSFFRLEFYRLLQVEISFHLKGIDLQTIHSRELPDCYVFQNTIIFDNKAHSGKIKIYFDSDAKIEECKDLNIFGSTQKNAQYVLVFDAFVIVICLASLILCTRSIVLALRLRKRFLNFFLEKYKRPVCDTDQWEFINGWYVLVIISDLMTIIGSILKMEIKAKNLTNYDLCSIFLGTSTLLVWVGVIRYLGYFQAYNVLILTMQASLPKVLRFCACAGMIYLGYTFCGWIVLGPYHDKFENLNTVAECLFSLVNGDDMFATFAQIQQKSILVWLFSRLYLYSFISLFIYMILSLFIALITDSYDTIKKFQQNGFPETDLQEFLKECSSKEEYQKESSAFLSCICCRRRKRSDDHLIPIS
Procedure, shortened: as §1

Sequence of TRPML1 (Q9GZU1 whole entry L15A/L16A/L577A/L578A, form open): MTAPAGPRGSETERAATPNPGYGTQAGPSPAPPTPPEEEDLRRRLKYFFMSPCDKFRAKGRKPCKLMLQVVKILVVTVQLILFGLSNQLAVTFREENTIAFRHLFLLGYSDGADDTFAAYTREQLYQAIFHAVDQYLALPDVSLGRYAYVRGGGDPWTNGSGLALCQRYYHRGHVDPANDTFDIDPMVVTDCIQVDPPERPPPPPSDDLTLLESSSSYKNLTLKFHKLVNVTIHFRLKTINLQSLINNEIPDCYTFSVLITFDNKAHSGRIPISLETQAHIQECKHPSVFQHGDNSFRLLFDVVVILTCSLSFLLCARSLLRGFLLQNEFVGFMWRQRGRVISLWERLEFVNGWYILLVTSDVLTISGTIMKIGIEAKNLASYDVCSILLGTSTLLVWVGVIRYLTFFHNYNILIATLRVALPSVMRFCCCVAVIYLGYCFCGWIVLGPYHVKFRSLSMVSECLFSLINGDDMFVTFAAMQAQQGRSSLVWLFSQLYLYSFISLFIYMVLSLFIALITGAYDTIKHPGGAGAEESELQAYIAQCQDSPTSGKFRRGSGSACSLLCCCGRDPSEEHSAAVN

Compound | EC50 (TRPML1) [nM] | EC50 (TRPML3) [nM] | EC50 (TRPML2) [nM]
C[C@H]1CN(C(=O)OC(C)(C)C)CCN1c1ncnc2c1c(C1CC1)cn2C1CCCC1 [Compound 339, tert-butyl (S)-4-(7-cyclopentyl-5-cyclopropyl-7H-pyrrolo[2,3-d]pyrimidin-4-yl)-3-methylpiperazine-1-carboxylate] | 100 to 500 | 100 to 500 | > 2000
C[C@H]1CN(C(=O)OC(C)(C)C)CCN1c1ncnc2c1c(C1CC1)cn2C1CCOCC1 [Compound 340, tert-butyl (S)-4-(5-cyclopropyl-7-(tetrahydro-2H-pyran-4-yl)-7H-pyrrolo[2,3-d]pyrimidin-4-yl)-3-methylpiperazine-1-carboxylate] | 500 to 2000 | 100 to 500 | > 2000
C[C@@H]1CN(c2ncnc3c2c(N2CCC2)cn3-c2cccc(C#N)c2)CCN1C(=O)OC(C)(C)C [Compound 341, tert-butyl (R)-4-(5-(azetidin-1-yl)-7-(3-cyanophenyl)-7H-pyrrolo[2,3-d]pyrimidin-4-yl)-2-methylpiperazine-1-carboxylate] | < 100 | < 100 | < 100
C[C@@H]1CN(c2ncnc3c2c(-n2ccnc2)cn3-c2cccc(Cl)c2)CCN1C(=O)OC(C)(C)C [Compound 342, tert-butyl (R)-4-(7-(3-chlorophenyl)-5-(1H-imidazol-1-yl)-7H-pyrrolo[2,3-d]pyrimidin-4-yl)-2-methylpiperazine-1-carboxylate] | < 100 | 100 to 500 | 500 to 2000
C[C@H]1CN(C(=O)OC(C)(C)C)CCN1c1ncnc2c1c(C1CC1)nn2-c1cc(C#N)ccn1 [Compound 343] | 500 to 2000 | 100 to 500 | > 2000
C[C@H]1CN(C(=O)OC(C)(C)C)CCN1c1ncnc2c1c(N1CCOCC1)cn2C1CCCCC1 [Compound 344, tert-butyl (S)-4-(7-cyclohexyl-5-morpholino-7H-pyrrolo[2,3-d]pyrimidin-4-yl)-3-methylpiperazine-1-carboxylate] | 100 to 500 | 100 to 500 | > 2000
C[C@H]1CN(C(=O)OC(C)(C)C)CCN1c1ncnc2c1c(C1CC1)cn2C1CCCOC1 (stereo partly drawn) [Compound 345, tert-butyl (3S)-4-(5-cyclopropyl-7-(tetrahydro-2H-pyran-3-yl)-7H-pyrrolo[2,3-d]pyrimidin-4-yl)-3-methylpiperazine-1-carboxylate] | 500 to 2000 | 500 to 2000 | > 2000
CCOC(=O)N1CCN(c2ncnc3c2c(-c2ccccc2F)cn3-c2cc(C#N)ccn2)[C@@H](C)C1 [Compound 346, ethyl (S)-4-(7-(4-cyanopyridin-2-yl)-5-(2-fluorophenyl)-7H-pyrrolo[2,3-d]pyrimidin-4-yl)-3-methylpiperazine-1-carboxylate] | < 100 | < 100 | < 100
CC(C)OC(=O)N1CCN(c2ncnc3c2c(-c2ccccc2F)cn3-c2cc(C#N)ccn2)[C@@H](C)C1 [Compound 347, isopropyl (S)-4-(7-(4-cyanopyridin-2-yl)-5-(2-fluorophenyl)-7H-pyrrolo[2,3-d]pyrimidin-4-yl)-3-methylpiperazine-1-carboxylate] | < 100 | < 100 | < 100
CC(OC(=O)N1CCN(c2ncnc3c2c(-c2ccccc2F)cn3-c2cc(C#N)ccn2)[C@@H](C)C1)C(F)(F)F (stereo partly drawn) [Compound 348, 1,1,1-trifluoropropan-2-yl (3S)-4-(7-(4-cyanopyridin-2-yl)-5-(2-fluorophenyl)-7H-pyrrolo[2,3-d]pyrimidin-4-yl)-3-methylpiperazine-1-carboxylate] | < 100 | < 100 | < 100
C[C@H]1CN(C(=O)OCC(F)(F)F)CCN1c1ncnc2c1c(-c1ccccc1F)cn2-c1cc(C#N)ccn1 [Compound 349, 2,2,2-trifluoroethyl (S)-4-(7-(4-cyanopyridin-2-yl)-5-(2-fluorophenyl)-7H-pyrrolo[2,3-d]pyrimidin-4-yl)-3-methylpiperazine-1-carboxylate] | < 100 | < 100 | < 100
C[C@H]1CN(C(=O)OC(C)(C)C)CCN1c1ncnc2c1c(N1CCC1)cn2-c1cccc(C#N)c1 [Compound 350, tert-butyl (S)-4-(5-(azetidin-1-yl)-7-(3-cyanophenyl)-7H-pyrrolo[2,3-d]pyrimidin-4-yl)-3-methylpiperazine-1-carboxylate] | < 100 | < 100 | < 100
C[C@H]1CN(C(=O)OC(C)(C)C)CCN1c1ncnc2c1c(-c1ccccn1)cn2-c1cc(C#N)ccn1 [Compound 352, tert-butyl (S)-4-(7-(4-cyanopyridin-2-yl)-5-(pyridin-2-yl)-7H-pyrrolo[2,3-d]pyrimidin-4-yl)-3-methylpiperazine-1-carboxylate] | < 100 | < 100 | < 100
C[C@H]1CN(C(=O)OC(C)(C)C)CCN1c1ncnc2c1c(-c1cccnc1)cn2-c1cc(C#N)ccn1 [Compound 353, tert-butyl (S)-4-(7-(4-cyanopyridin-2-yl)-5-(pyridin-3-yl)-7H-pyrrolo[2,3-d]pyrimidin-4-yl)-3-methylpiperazine-1-carboxylate] | < 100 | < 100 | < 100
C[C@H]1CN(C(=O)OC(C)(C)C)CCN1c1ncnc2c1c(-c1ccncc1)cn2-c1cc(C#N)ccn1 [Compound 354, tert-butyl (S)-4-(7-(4-cyanopyridin-2-yl)-5-(pyridin-4-yl)-7H-pyrrolo[2,3-d]pyrimidin-4-yl)-3-methylpiperazine-1-carboxylate] | < 100 | < 100 | < 100
C[C@H]1CN(C(=O)OC(C)(C)C)CCN1c1ncnc2c1c(-c1ccncc1F)cn2-c1cc(C#N)ccn1 [Compound 355, tert-butyl (S)-4-(7-(4-cyanopyridin-2-yl)-5-(3-fluoropyridin-4-yl)-7H-pyrrolo[2,3-d]pyrimidin-4-yl)-3-methylpiperazine-1-carboxylate] | < 100 | < 100 | < 100
C[C@@H]1CN(c2ncnc3c2c(N2CCCC2)cn3-c2cc(F)c(F)c(F)c2)CCN1C(=O)OC(C)(C)C [Compound 362, tert-butyl (R)-2-methyl-4-(5-(pyrrolidin-1-yl)-7-(3,4,5-trifluorophenyl)-7H-pyrrolo[2,3-d]pyrimidin-4-yl)piperazine-1-carboxylate] | < 100 | < 100 | 100 to 500
C[C@@H]1CN(c2cn(-c3cccc(C#N)c3)c3ncnc(N4CCN(C(=O)OC(C)(C)C)C[C@@H]4C)c23)CCO1 [Compound 363, tert-butyl (S)-4-(7-(3-cyanophenyl)-5-((R)-2-methylmorpholino)-7H-pyrrolo[2,3-d]pyrimidin-4-yl)-3-methylpiperazine-1-carboxylate] | 100 to 500 | < 100 | 500 to 2000
C[C@H]1CN(C(=O)OC(C)(C)C)CCN1c1ncnc2c1c(C1CC1)cn2C12CCC(CC1)CC2 [Compound 364, tert-butyl (S)-4-(7-(bicyclo[2.2.2]octan-1-yl)-5-cyclopropyl-7H-pyrrolo[2,3-d]pyrimidin-4-yl)-3-methylpiperazine-1-carboxylate] | < 100 | < 100 | 100 to 500
C[C@H]1CN(C(=O)OC(C)(C)C)CCN1c1ncnc2c1c(C1CC1(F)F)cn2-c1cc(C#N)ccn1 (stereo partly drawn) [Compound 365, tert-butyl (3S)-4-(7-(4-cyanopyridin-2-yl)-5-(2,2-difluorocyclopropyl)-7H-pyrrolo[2,3-d]pyrimidin-4-yl)-3-methylpiperazine-1-carboxylate] | < 100 | < 100 | 100 to 500
CCN(CC)c1cn(-c2cccc(Cl)c2)c2ncnc(N3CCN(C(=O)OC(C)(C)C)C[C@@H]3C)c12 [Compound 366, tert-butyl (S)-4-(7-(3-chlorophenyl)-5-(diethylamino)-7H-pyrrolo[2,3-d]pyrimidin-4-yl)-3-methylpiperazine-1-carboxylate] | < 100 | < 100 | 100 to 500
